Experimental data taken from publication PMC13144739, “Global analysis of cancer cell responses to USP9X inhibition” (The EMBO Journal, 2026).

Key:
[1] = biological target: T1, USP9X catalytic domain (Homo sapiens, UniProt Q93008); assay: Ub-Rho cleavage assay; format: biochemical; conditions: Ub-Rho cleavage, recombinant USP9X catalytic domain (WT)
T1 construct: His/SUMO (pOPIN-S vector) (N, cleaved yes); made in house; host or cells: E. coli BL21
T1 sequence (Q93008 1551-1970): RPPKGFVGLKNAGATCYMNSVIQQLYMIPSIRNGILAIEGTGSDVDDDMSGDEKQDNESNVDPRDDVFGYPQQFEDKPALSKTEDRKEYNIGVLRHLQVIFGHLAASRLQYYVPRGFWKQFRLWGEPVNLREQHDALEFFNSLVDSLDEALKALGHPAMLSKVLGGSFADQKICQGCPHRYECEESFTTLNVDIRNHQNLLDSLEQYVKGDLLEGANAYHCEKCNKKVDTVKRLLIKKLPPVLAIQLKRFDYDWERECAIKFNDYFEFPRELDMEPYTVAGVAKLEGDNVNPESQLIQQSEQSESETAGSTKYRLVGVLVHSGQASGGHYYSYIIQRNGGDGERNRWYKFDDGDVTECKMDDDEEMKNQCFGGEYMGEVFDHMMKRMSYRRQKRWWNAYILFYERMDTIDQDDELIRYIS
Procedure: The reaction was stopped through the addition of 10 mM citric acid. The assay was performed in 384-well format with a total reaction volume of 16 µL. Data was collected using the ClarioSTAR plate reader (BMG Labtech) at an emission of 535 nm. […] IC50 values presented in our study are the mean of three independent biological repeats unless indicated otherwise.

[2] = biological target: T1, USP9X catalytic domain; assay: SPR binding assay
Procedure: Next, the sample was desalted using PD midiTrap™ G-25 (GE Healthcare) columns following the manufacturer’s instructions and was further purified by SEC, concentrated, and stored at -80 °C. Enzyme activity was tested in a ubiquitin-probe assay. SPR experiments were performed on a Biacore 8 K+ instrument (Cytiva). USP9X catalytic domain with a C-terminal AviTag™ was immobilised in 10 mM HEPES, 150 mM NaCl at pH 7.4 on a Series S Sensor Chip SA (Cytiva) by coupling. […] Running buffer was supplemented with 2% (v/v) DMSO. Multi-cycle kinetics were performed with 120 s associations and 600 s dissociations at 30 µL/min with no further regeneration. Binding constants were determined in Biacore Insight evaluation software (v5.0.18) at steady state, taking the median response over a 5-s window beginning at 10 s before the end of the association phase. Final KD values are the mean of three independent experiments.

[3] = biological target: T1, USP9X catalytic domain; assay: K48-linked di-ubiquitin cleavage assay; format: biochemical; conditions: reported USP9X inhibitors; Appendix Fig. S1B,E (diUb cleavage 150 µM, Ub-Rho)
Procedure: For inhibitor activity assays, USP9X catalytic domain (di-ubiquitin cleavage assay: 750 nM, ubiquitin-probe assays: 2.5 µM) was pre-incubated with USP9X inhibitors for 30 min at ambient temperature and subsequently mixed with di-ubiquitin (final concentration 2 µM) in assay buffer (25 mM Tris [pH 8.0], 150 mM NaCl, 10 mM DTT) at pH 8.0 or was mixed with ubiquitin-propargylamide (Ub-PA)/ubiquitin-vinyl sulfonate (Ub-VS) probes at a final concentration of 10 µM in assay buffer. For both assays, the mixture was incubated over a time course, and the reaction was stopped by mixing samples with 2× LDS sample buffer (Invitrogen) supplemented with 3% (v/v) 2-mercaptoethanol. All protein samples were run on a 4–12% Bis-Tris SDS-PAGE gradient gel (Invitrogen) for 60 min at 140 V. The gel was stained with InstantBlue® (Abcam) and imaged.

[4] = test system: human dermal fibroblasts (HDF); assay: IncuCyte live-cell imaging cell death, HDF; format: cell-based; conditions: 50 µM (Appendix Fig. S4E)
Procedure: Cells were seeded at varying densities (1000–8000 cells per well) after initial optimisation in a 96-well tissue culture-treated plate (Thermo Fisher Scientific). Cells were incubated o/n, and the next day, inhibitors and controls diluted in cell media were added to the cells to a final volume of 200 μL per well. Cell death was measured using PI (Sigma-Aldrich). Cells were imaged with four images per well every 2 h for up to 96 h using the IncuCyte live-cell analysis system (S3, Sartorius). Cell proliferation data were analysed using Microsoft Excel by normalising confluence to control conditions. For cell killing readouts, the number of PI-positive cells was normalised to the control conditions for each timepoint.

SMILES | IC50 [1] [µM] | Kd ([2]; SPR, steady state, mean of three repeats, read-out: KD (steady state affinity)) [µM] | SPR kinetic fitting (on-rate/off-rate) ([2]; compared with the WEHI compound series / WEHI-092) | effects on the purified USP9X catalytic domain [3] | toxicity to HDFs [4]
O=C(c1ccc2[nH]ccc2c1)N1CCN(S(=O)(=O)c2ccc3c(c2)OCCO3)CC1 [WEHI-680] | 4.3 | 3.51 ± 0.58 | much faster off-rate |  | 
CCC[C@H](NC(=O)/C(C#N)=C/c1cccc(Br)n1)c1ccccc1 [WP1130] |  |  |  | no or weak effects | cytotoxic
O=S(=O)(c1ccc2c(c1)OCCO2)N1CCN(c2ccc(-c3ccccc3)nn2)CC1 [WEHI-871] | > 100 |  |  |  | 
CCCC(NC(=O)/C(C#N)=C/c1nc(Cl)ccc1Cl)c1ccc(OCCN2CCOCC2)cc1 (centres unmarked) [EOAI3402143] |  |  |  | no or weak effects | cytotoxic
